Legend:
[1] = test system: nitrosoamine-induced pancreatic cancer; experiment: laser irradiation to the extirpated organ (excited fluorescent spectrum, N2-PLS measurement), tumor to tissue ratio; format: in vivo, Golden hamsters; settings: i.v. 25 mg/kg bodyweight, organs extirpated at 24 hours after administration
Procedure: Golden hamsters (males, 5 per group, bodyweight approximately 150 g) were implanted subcutaneously tumor cells of the nitrosoamine-induced pancreatic cancer. After 14 to 21 days following implantation, animals were intravenously (i.v.) administered the test substance EG-Ga-DP-diGly (10 mg/ml) which had been diluted with phosphate buffer at 25 mg/kg bodyweight. At 24 hours after administration, the organs including the tumor were extirpated, irradiated with N2-pulsed laser (N2, 337 nm, 2 ns, 400 - 1000 nm), and measured of excited fluorescent spectrum. The wavelengths of 600 - 900 nm were studied using the peak wavelength of NADH at 470 nm as a reference. (N2-PLS measurement). […] (Tumor to tissue ratio).
Excited fluorescent spectra of the organs extirpated at 24 hours after administration were measured, and the peak wavelength at 600 - 900 nm was calculated by setting the peak wavelength at 470 nm as the reference 1. As fluorescence in Mn, Fe and Cu complexes is not sufficiently intense as to enable N2-PLS measurement, the extraction method was applied to these compounds. At 24 hours following administration, the organs were extracted with an organic solvent (such as chloroform-methanol) via acetone powder, and the obtained extract was measured of UV or HPLC to calculate the tumor to tissue ratio.

[2] = test system: nitrosoamine-induced pancreatic cancer; experiment: in vivo hemorrhagic necrosis effect; parameters: species or system hamsters; key to Hemorrhagic necrosis effect: four scales of G4, G3, G2 and G1; four scales of G4, G3, G2 and G1; four scales of G4, G3, G2 and G1; four scales of G4, G3, G2 and G1; settings: for Hemorrhagic necrosis effect: intensity of hemorrhagic necrosis at 24 hours following i.v. administration, and pathological study; for photograph of cancer masses (Fig. 3): 24 hours after administration
Procedure: Cancer bearing hamsters of Experiment 1 were i.v. administered the test substance C6-Ga-DP-diAsp (10) (10 mg/ml) which had been diluted with phosphate buffer at 25 mg/kg bodyweight and 12.5 mg/kg bodyweight respectively. The animals were exsanguinated and autopsied at 24 hours after administration, and observed.
The evaluation was based on the four scales of G4, G3, G2 and G1.

Row | Compound | Hemorrhagic necrosis effect [2] | also measured
1 | CC1=C(CCC(=O)NC(CC(=O)O)C(=O)O)C2=NC1=Cc1c(C)c(C(C)OCCO)c3[n]1[Ga][n]1c(c(C)c(CCC(=O)NC(CC(=O)O)C(=O)O)c1=C2)=CC1=NC(=C3)C(C)=C1C(C)OCCO (stereo not drawn) [(3) EG-Ga-DP-diAsp, 2,4-bis[1-(2-hydroxyethyloxy)ethyl]-Ga-deuteroporphynyl diaspartic acid] |  | tumor/tissue cancer/ kidney [1]: 3.45; tumor/tissue cancer/ liver [1]: 3.00; tumor/tissue cancer/ lung [1]: 2.87
2 | CCCCCCCCOC(C)C1=C(C)C2=Cc3c(C(C)OCCCCCCCC)c(C)c4[n]3[Mn][n]3c(c(C)c(CCC(=O)NC(CC(=O)O)C(=O)O)c3=CC3=NC(=C4)C(C)=C3CCC(=O)NC(CC(=O)O)C(=O)O)=CC1=N2 (stereo not drawn) [(36) C8-Mn-DP-diAsp, 2,4-bis(1-octyloxyethyl)-Mn-deuteroporphynyl diaspartic acid] | G3 | 
3 | CCCCCCCCCCOC(C)C1=C(C)C2=Cc3c(C(C)OCCCCCCCCCC)c(C)c4[n]3[Mn][n]3c(c(C)c(CCC(=O)NCC(=O)NC(CC(=O)O)C(=O)O)c3=CC3=NC(=C4)C(C)=C3CCC(=O)NCC(=O)NC(CC(=O)O)C(=O)O)=CC1=N2 (stereo not drawn) [(39) C10-Mn-DP-diGly-diAsp, 2,4-bis(1-decyloxyethyl)-Mn-deuteroporphynyl diglycyldiaspartic acid] | G2 | 
4 | CCCCCCCCCCOC(C)C1=C(C)C2=Cc3c(C(C)OCCCCCCCCCC)c(C)c4[n]3[Mn][n]3c(c(C)c(CCC(=O)NC(CC(C)C)C(=O)NC(CC(=O)O)C(=O)O)c3=CC3=NC(=C4)C(C)=C3CCC(=O)NC(CC(C)C)C(=O)NC(CC(=O)O)C(=O)O)=CC1=N2 (stereo not drawn) [(40) C10-Mn-DP-diLeu-diAsp, 2,4-bis(1-decyloxyethyl)-Mn-deuteroporphynyl dileucyldiaspartic acid] | G2 | 
5 | CCCCCCCCCCOC(C)C1=C(C)C2=Cc3c(C(C)OCCCCCCCCCC)c(C)c4[n]3[Mn][n]3c(c(C)c(CCC(=O)NC(Cc5ccccc5)C(=O)NC(CC(=O)O)C(=O)O)c3=CC3=NC(=C4)C(C)=C3CCC(=O)NC(Cc3ccccc3)C(=O)NC(CC(=O)O)C(=O)O)=CC1=N2 (stereo not drawn) [(41) C10-Mn-DP-diPhe-diAsp, 2,4-bis(1-decyloxyethyl)-Mn-deuteroporphynyl diphenylalanyldiaspartic acid] | G2 | 
6 | CC(C)=CCC/C(C)=C/COC(C)C1=C(C)C2=Cc3c(C(C)OC/C=C(\C)CCC=C(C)C)c(C)c4[n]3[Mn][n]3c(c(C)c(CCC(=O)NC(CC(=O)O)C(=O)O)c3=CC3=NC(=C4)C(C)=C3CCC(=O)NC(CC(=O)O)C(=O)O)=CC1=N2 (stereo not drawn) [(42) C10(Gera)-Mn-DP-diAsp, 2,4-bis(1-geranyloxyethyl)-Mn-deuteroporphynyl diaspartic acid] | G3 | photograph of cancer masses (Fig. 3) [2]: hemorrhagic necrosis
7 | CC(C)=CCCC(C)CCOC(C)C1=C(C)C2=Cc3c(C(C)OCCC(C)CCC=C(C)C)c(C)c4[n]3[Mn][n]3c(c(C)c(CCC(=O)NC(CC(=O)O)C(=O)O)c3=CC3=NC(=C4)C(C)=C3CCC(=O)NC(CC(=O)O)C(=O)O)=CC1=N2 (stereo not drawn) [(43) C10(Citro)-Mn-DP-diAsp, 2,4-bis(1-citronellyloxyethyl)-Mn-deuteroporphynyl diaspartic acid] | G3 | 
8 | CC1=C(CCC(=O)NC(CC(=O)O)C(=O)O)c2cc3[nH]c(cc4nc(cc5[nH]c(cc1n2)c(C(C)OCCC(C)CCCC(C)C)c5C)C(C(C)OCCC(C)CCCC(C)C)=C4C)c(C)c3CCC(=O)NC(CC(=O)O)C(=O)O.[Mn] (stereo not drawn) [(44) C10(H2Citro)-Mn-DP-diAsp, 2,4-bis(1-dihydrocitronellyloxyethyl)-Mn-deuteroporphynyl diaspartic acid] | G4 | 
9 | C=CC1=C(C)C2=Cc3c(C(C)OCCC(C)CCCC(C)C)c(C)c4[n]3[Mn][n]3c(c(C)c(CCC(=O)NC(CC(=O)O)C(=O)O)c3=CC3=NC(=C4)C(C)=C3CCC(=O)NC(CC(=O)O)C(=O)O)=CC1=N2 (stereo not drawn) [(45) C10(H2Citro,mono)-Mn-DP-diAsp, 2-(1-dihydrocitronellyloxyethyl)-4-ethenyl-Mn-deuteroporphynyl diaspartic acid] | G2 | 
10 | C=CC1=C(C)C2=Cc3c(C(C)OCCCCCCCCCCCC)c(C)c4[n]3[Mn][n]3c(c(C)c(CCC(=O)NC(CC(=O)O)C(=O)O)c3=CC3=NC(=C4)C(C)=C3CCC(=O)NC(CC(=O)O)C(=O)O)=CC1=N2 (stereo not drawn) [(49) C12(mono)-Mn-DP-diAsp, 2-(1-dodecyloxyethyl)-4-ethenyl-Mn-deuteroporphynyl diaspartic acid] | G2 | 
11 | CCCCCCCCCCCCCCOC(C)C1=C(C)C2=Cc3c(C(C)OCCCCCCCCCCCCCC)c(C)c4[n]3[Mn][n]3c(c(C)c(CCC(=O)NC(CC(=O)O)C(=O)O)c3=CC3=NC(=C4)C(C)=C3CCC(=O)NC(CC(=O)O)C(=O)O)=CC1=N2 (stereo not drawn) [(51) C14-Mn-DP-diAsp, 2,4-bis(1-tetradecyloxyethyl)-Mn-deuteroporphynyl diaspartic acid] | G3 | 
12 | CC1=C(CCC(=O)NC(CC(=O)O)C(=O)O)c2cc3[nH]c(cc4nc(cc5[nH]c(cc1n2)c(C(C)OCC1CCCO1)c5C)C(C(C)OCC1CCCO1)=C4C)c(C)c3CCC(=O)NC(CC(=O)O)C(=O)O.[Mn] (stereo not drawn) [(55) H4Fran-Mn-DP-diAsp, 2,4-bis(1-tetrahydrofurfuryloxyethyl)-Mn-deuteroporphynyl diaspartic acid] | G2 | 
13 | CC1=C(CCC(=O)NC(CC(=O)O)C(=O)O)C2=NC1=Cc1c(C)c(C(C)OCc3cccnc3)c3[n]1[Mn][n]1c(c(C)c(CCC(=O)NC(CC(=O)O)C(=O)O)c1=C2)=CC1=NC(=C3)C(C)=C1C(C)OCc1cccnc1 (stereo not drawn) [(57) Nct-Mn-DP-diAsp, 2,4-bis(1-nicotynyloxyethyl)-Mn-deuteroporphynyl diaspartic acid] | G2 | 
14 | CCCCCCCCOC(C)C1=C(C)C2=Cc3c(C(C)OCCCCCCCC)c(C)c4[n]3[Fe][n]3c(c(C)c(CCC(=O)NC(CC(=O)O)C(=O)O)c3=CC3=NC(=C4)C(C)=C3CCC(=O)NC(CC(=O)O)C(=O)O)=CC1=N2 (stereo not drawn) [(62) C8-Fe-DP-diAsp, 2,4-bis(1-octyloxyethyl)-Fe-deuteroporphynyl diaspartic acid] | G3 | photograph of cancer masses (Fig. 3) [2]: hemorrhagic necrosis
15 | CCCCCCCCCCCCOC(C)C1=C(C)C2=Cc3c(C(C)OCCCCCCCCCCCC)c(C)c4[n]3[Fe][n]3c(c(C)c(CCC(=O)NC(CC(=O)O)C(=O)O)c3=CC3=NC(=C4)C(C)=C3CCC(=O)NC(CC(=O)O)C(=O)O)=CC1=N2 (stereo not drawn) [(64) C12-Fe-DP-diAsp, 2,4-bis(1-dodecyloxyethyl)-Fe-deuteroporphynyl diaspartic acid] | G3 | 
16 | CCCCCCCCCCOC(C)C1=C(C)C2=Cc3c(C(C)OCCCCCCCCCC)c(C)c4[n]3[Co][n]3c(c(C)c(CCC(=O)NC(CC(=O)O)C(=O)O)c3=CC3=NC(=C4)C(C)=C3CCC(=O)NC(CC(=O)O)C(=O)O)=CC1=N2 (stereo not drawn) [(66) C10-Co-DP-diAsp, 2,4-bis(1-decyloxyethyl)-Co-deuteroporphynyl diaspartic acid] | G1 | 
17 | CCCCCCCCCCCCOC(C)C1=C(C)c2cc3[nH]c(cc4nc(cc5[nH]c(cc1n2)c(C)c5C(C)OCCCCCCCCCCCC)C(C)=C4CCC(=O)NC(CC(=O)O)C(=O)O)c(CCC(=O)NC(CC(=O)O)C(=O)O)c3C.[Co] (stereo not drawn) [(67) C12-Co-DP-diAsp, 2,4-bis(1-dodecyloxyethyl)-Co-deuteroporphynyl diaspartic acid] | G1 | 

From patent EP0350948B1, “Porphyrin derivatives” (TOYOHAKKA KOGYO KABUSHIKI KAISHA, priority 1988, dated 1990)
